Series [1] relates to HepG2. Kind of series: Cytotoxicity in human HepG2 cells assessed as reduction in cell viability up to 12.5 uM incubated for 24 hrs by MTT assay. It is filed as cell-based. The settings on record: hepg2, 24 h.
Series [2] relates to HepG2. As to the kind of experiment: Stimulation of glucose consumption in palmitate-induced insulin-resistant human HepG2 cells at 12.5 uM incubated for 24 hrs by glucose oxidase based assay. Type of series: functional, cell-based.
In series [3] the test system is HepG2. Kind of series: Cytotoxicity in palmitate-induced insulin-resistant human HepG2 cells assessed as reduction in cell viability at 12.5 uM incubated for 24 hrs by MTT assay. It is filed as cell-based. The note with it: hepg2, 24 h.
In series [4] the target is RAC-alpha serine/threonine-protein kinase (Homo sapiens) (UniProt P31749). Kind of series: Activation of AKT in palmitate-induced insulin-resistant human HepG2 cells assessed as reduction in GLUT2 mRNA expression at 12.5 uM incubated for 24 hrs after 1 hr pre-incubation of cells with 0.5 uM AKT inhibitor […] by real-time PCR method. It is filed as cell-based.
Sequence of RAC-alpha serine/threonine-protein kinase (Homo sapiens) (P31749 whole entry): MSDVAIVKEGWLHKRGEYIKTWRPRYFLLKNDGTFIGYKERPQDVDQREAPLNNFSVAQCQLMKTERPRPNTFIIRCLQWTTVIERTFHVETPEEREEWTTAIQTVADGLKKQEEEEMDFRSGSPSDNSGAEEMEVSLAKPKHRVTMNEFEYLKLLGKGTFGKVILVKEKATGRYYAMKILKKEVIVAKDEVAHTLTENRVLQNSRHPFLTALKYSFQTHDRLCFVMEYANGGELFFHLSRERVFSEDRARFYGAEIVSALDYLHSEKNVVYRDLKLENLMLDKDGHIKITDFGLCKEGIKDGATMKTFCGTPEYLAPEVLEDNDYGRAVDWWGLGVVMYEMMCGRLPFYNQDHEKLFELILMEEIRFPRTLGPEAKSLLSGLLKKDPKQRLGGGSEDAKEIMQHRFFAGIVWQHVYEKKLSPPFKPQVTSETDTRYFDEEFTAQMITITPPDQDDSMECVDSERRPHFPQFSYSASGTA
Series [5] shares this target. Kind of series: Activation of AKT in palmitate-induced insulin-resistant human HepG2 cells assessed as reduction in G6Pase mRNA expression at 12.5 uM incubated for 24 hrs after 1 hr pre-incubation of cells with 0.5 uM AKT inhibitor […] by real-time PCR method. Type of series: cell-based.
Series [6] concerns the target T1, AMP-activated protein kinase, AMPK (Homo sapiens) (UniProt P54646+O43741+P54619+Q9UGJ0+Q9Y478+Q13131+Q9UGI9). As to the kind of experiment: Activation of AMPK in palmitate-induced insulin-resistant human HepG2 cells assessed as reduction in G6Pase mRNA expression at 12.5 uM incubated for 24 hrs by real-time PCR method. It is filed as cell-based.
For series [7], the target named is RAC-alpha serine/threonine-protein kinase (Homo sapiens) (UniProt P31749). As to the kind of experiment: Activation of AKT in palmitate-induced insulin-resistant human HepG2 cells assessed as increase in AKT phosphorylation at 12.5 uM incubated for 24 hrs by Western blot method. It is filed as cell-based.
For series [8] the target is unchanged. Kind of series: Activation of AKT in palmitate-induced insulin-resistant human HepG2 cells assessed as reduction in PEPCK mRNA expression at 12.5 uM incubated for 24 hrs after 1 hr pre-incubation of cells with 0.5 uM AKT inhibitor […] by real-time PCR method. It is filed as cell-based.
For series [9] the target is unchanged. As to the kind of experiment: Activation of AKT in palmitate-induced insulin-resistant human HepG2 cells assessed as reduction in G6Pase mRNA expression at 12.5 uM incubated for 24 hrs after 1 hr pre-incubation of cells with 10 uM AMPK inhibitor compound C by real-time PCR method. It is filed as cell-based.
Series [10] concerns the target T1, AMP-activated protein kinase, AMPK (Homo sapiens). Kind of series: Activation of AMPK in palmitate-induced insulin-resistant human HepG2 cells assessed as reduction in PEPCK mRNA expression at 12.5 uM incubated for 24 hrs by real-time PCR method. Type of series: cell-based.
Series [11] shares this target. Kind of series: Activation of AMPK in palmitate-induced insulin-resistant human HepG2 cells assessed as reduction in GLUT2 mRNA expression at 12.5 uM incubated for 24 hrs by real-time PCR method. It is filed as cell-based.
For series [12] the target is unchanged. Kind of series: Activation of AMPK in palmitate-induced insulin-resistant human HepG2 cells assessed as increase in AMPK phosphorylation at 12.5 uM incubated for 24 hrs by Western blot method. It is filed as cell-based.
Series [13] addresses RAC-alpha serine/threonine-protein kinase (Homo sapiens) (UniProt P31749). As to the kind of experiment: Activation of AKT in palmitate-induced insulin-resistant human HepG2 cells assessed as reduction in GLUT2 mRNA expression at 12.5 uM incubated for 24 hrs after 1 hr pre-incubation of cells with 10 uM AMPK inhibitor compound C by real-time PCR method. Type of series: cell-based.

For series [14] the target is unchanged. As to the kind of experiment: Activation of AKT in palmitate-induced insulin-resistant human HepG2 cells assessed as reduction in PEPCK mRNA expression at 12.5 uM incubated for 24 hrs after 1 hr pre-incubation of cells with 10 uM AMPK inhibitor compound C by real-time PCR method. Type of series: cell-based.
Series [15] deals with T1, AMP-activated protein kinase, AMPK (Homo sapiens). Kind of series: Activation of AMPK in palmitate-induced insulin-resistant human HepG2 cells assessed as reduction in PEPCK mRNA expression at 12.5 uM incubated for 24 hrs after 1 hr pre-incubation of cells with 10 uM AMPK inhibitor compound C by real-time PCR method. It is filed as cell-based.
Series [16] has the same target. Kind of series: Activation of AMPK in palmitate-induced insulin-resistant human HepG2 cells assessed as reduction in G6Pase mRNA expression at 12.5 uM incubated for 24 hrs after 1 hr pre-incubation of cells with 10 uM AMPK inhibitor compound C by real-time PCR method. Type of series: cell-based.
Series [17] has the same target. As to the kind of experiment: Activation of AMPK in palmitate-induced insulin-resistant human HepG2 cells assessed as reduction in GLUT2 mRNA expression at 12.5 uM incubated for 24 hrs after 1 hr pre-incubation of cells with 10 uM AMPK inhibitor compound C by real-time PCR method. Type of series: cell-based.
A short description of series [18]: Cytotoxicity in human HepG2 cells assessed as cell viability at 50 uM incubated for 24 hrs by MTT assay. The note with it: read-out: Activity. Type of series: cell-based.
Series [19] in a line: Cytotoxicity in human HepG2 cells assessed as cell viability at 25 uM incubated for 24 hrs by MTT assay. It is filed as cell-based. The note with it: read-out: Activity.
The subject of series [20] is HepG2. Kind of series: Cytotoxicity in human HepG2 cells assessed as reduction in cell viability at 3.125 to 50 uM incubated for 24 hrs by MTT assay. It is filed as cell-based. The note with it: hepg2, 24 h.
For series [21], the system named is HepG2. Kind of series: Stimulation of glucose consumption in palmitate-induced insulin-resistant human HepG2 cells at 12.5 uM incubated for 24 hrs by glucose oxidase based assay relative to palmitate. Type of series: functional.

Calls of active or inactive are those of the source. The calls are words filed in the database; no cut-off is given here.

For the compound `COc1c(O[C@@H]2O[C@H](C(=O)O)[C@@H](O)[C@H](O)[C@H]2O)cc2oc(-c3ccccc3)cc(=O)c2c1O`, the Activity entry in series [1] and in series [3] was “Non-Toxic” throughout. In addition, the result in series [2] was inactive. The result in series [4] was Active.
With `O=C(O)[C@H]1O[C@@H](Oc2cc3oc(-c4ccccc4)cc(=O)c3c(O)c2O[C@@H]2O[C@H](CO)[C@@H](O)[C@H](O)[C@H]2O)[C@H](O)[C@@H](O)[C@@H]1O`, the result in series [5] and in [8] was inactive. Further, the result in [6], in series [7], in [9], in series [10], in [11] and in [2] was Active. For the same compound, the outcome in series [4], in series [12], in series [13] and in series [14] was Active. For the same compound, the Activity entry in [1] and in [3] was “Non-Toxic” throughout.
Turning to `O=c1cc(-c2ccccc2)oc2cc(O)c(O)c(O)c12` [BAICALEIN], the outcome in series [6], in series [7], in [10], in [11], in series [2] and in series [4] was Active. For the same compound, in series [12], the outcome was Active. Further, the result in [15], in [16] and in [17] was inactive. Also, the Activity result in series [1] and in [3] was “Non-Toxic” each time.
Consider `O=C(O)[C@H]1O[C@@H](Oc2cc3oc(-c4ccccc4)cc(=O)c3c(O)c2O)[C@H](O)[C@@H](O)[C@@H]1O` [BAICALIN], for which the result in series [6], in series [10], in series [11], in series [2] and in [12] was Active. For the same compound, the viability at 24 h, 50 µM in [18] worked out at 85%. Also, the result in series [15] and in series [17] was inactive. In addition, the viability at 24 h, 25 µM in [19] was found to be 85%. Besides, the Activity result in series [3] and in series [20] was “Non-Toxic” each time.
As to `CN(CCOc1ccc(CC2SC(=O)NC2=O)cc1)c1ccccn1` (configuration not stated) [ROSIGLITAZONE], the outcome in [6], in series [10], in series [11], in [2] and in series [12] was Active. This compound yielded an Activity in series [21] of 7%.

These data come from ChEMBL document CHEMBL4130491, “Baicalin and its metabolites suppresses gluconeogenesis through activation of AMPK or AKT in insulin resistant HepG-2 cells” (Eur J Med Chem, 2017).
